# Test results reported in patent US8206970B2, “Production of 2-butanol and 2-butanone employing aminobutanol phosphate phospholyase” (Butamax(TM) Advanced Biofuels LLC, priority 2006, dated 2012).
# Columns and labels:
# [1] = system: Erwinia amino alcohol O-phosphate lyase; assay: activity of amino alcohol O-phosphate lyase towards aminobutanol O-phosphate and stereoisomers (MBTH derivatization, HPLC); assay type: biochemical, Erwinia carotovora subsp. atroseptica; conditions: for conversion of substrate to ketone product: 100 μg cell free extract, 10 mM substrate, 0.1 mM PLP, pH 7.8, 37° C. overnight; for product yield / activity compared among substrates: same conditions, comparison between substrate isomers
# Protocol: 2-Butanone can also be detected by derivatization with 3-methyl-2-benzothiazolinone hydrazone (MBTH). An aqueous solution containing 2-butanone is mixed with an equal volume of an aqueous solution of 6 mg/mL MBTH in 375 mM glycine-HCl (pH 2.7) and incubated at 100° C. for 3 min. The resulting MBTH-derivatized samples are analyzed on a 25 cm×4.6 mm (id) Supelosil LC-18-D5 5 μm column (Supelco) using a mobile phase of 55% acetonitrile in water at a flow rate of 1 mL/min. The 2-butanone derivative appears as two peaks (cis and trans isomers) with retention times of approximately 12.3 and 13.3 min and absorbance maxima of 230 and 307 nm.
# The activity of the amino alcohol O-phosphate lyase towards the aminobutanol O-phosphate substrates was studied under the same conditions as described above. The reaction was carried out at 37° C. overnight in a 1 mL reaction that contained 100 μg of cell free extract of E. coli TOP10/pBAD.KA-AT, 10 mM aminobutanol O-phosphate (either the mixture of (R,R)+(S,S) or the mixture of (R,S) +(S,R) isomers described in Example 15) in 100 mM Tris-HCI, pH 7.8, with 0.1 mM PLP. An aliquot of 100 μL reaction mixture was removed and the 2-butanone product was detected using the MBTH derivatization method described in the General Methods. […] Therefore the Erwinia amino alcohol O-phosphate lyase is an aminobutanol phosphate phospho-lyase in addition to an aminopropanol phosphate phospho-lyase.
# The activity of the Erwinia amino alcohol O-phosphate lyase towards various stereoisomers of aminopropanol O-phosphate and aminobutanol O-phosphate was studied under the same conditions as described above. […] Both propanone and butanone products were derivatized by MBTH, and detected by HPLC as described in General Methods.
# [2] = system: Erwinia amino alcohol O-phosphate lyase; assay: aminopropanol O-phosphate lyase assay (colorimetric, MBTH); assay type: biochemical, Erwinia carotovora subsp. atroseptica; conditions: induced cell free extract 100 μg/mL, 10 mM substrate, 37° C.
# Protocol: The PBAD.KA-AT plasmid was transformed into the E. coli TOP10 strain. A 50 mL culture of TOP10/pBAD.KA-AT strain was grown to mid log phase (OD600=0.6) in LB, 100 μg/mL ampicillin media at 37° C. with shaking at 250 rpm. The culture was induced by addition of L-arabinose to a final concentration of 0.1% (w/v), and it was further incubated at 37° C. for 5 h before harvesting by centrifugation. The cell pellet was resuspended in ice cold 50 mM Tris-HCl, pH 8.0, and disrupted by sonication on ice with a Fischer Sonic Model 300 Dismembrator (Fischer, Pittsburgh, Pa.) at 50% power, repeating four cycles of 30 seconds sonication with 60 seconds rest in-between each cycle. Each sonicated sample was centrifuged (15,000×g, 4 min, 4° C.). Clarified cell free extracts were analyzed for protein expression level and amino alcohol O-phosphate lyase activity.
# The aminopropanol O-phosphate lyase assay was performed as described by Jones et al. (1973, Biochem. J. 134:167-182) and G. Gori et al. (1995, Chromatographia 40:336) The formation of propionaldehyde from aminopropanol O-phosphate was assayed calorimetrically with MBTH, which allows the detection of aldehyde formation. The reaction was performed as follows. In a 1 mL reaction, 100 μg cell free extract of E. coli TOP10/pBAD.KA-AT was added to 10 mM DL-1-amino-2-propanol O-phosphate in 100 mM Tris-HCl, pH 7.8, with 0.1 mM PLP. The reaction was incubated at 37° C. for 10 min and 30 min, with an aliquot of 100 μL reaction mixture removed at each time point and mixed with 100 μL of 6 mg/mL MBTH in 375 mM glycine-HCl, pH 2.7. This mixture was incubated at 100° C. for 3 min, cooled on ice for 15-30 s, and 1 mL of 3.3 mg/mL FeCl3.6H2O (in 10 mM HCl) was added, followed by incubation for 30 min at room temperature. The absorbance of the reaction mixture which contains the aldehyde-MBTH adduct, was measured at 670 nm. In the presence of the aminopropanol phosphate substrate, PLP and cell free extract, formation of aldehyde was detected, as indicated by an Abs670 that was higher than the control background of up to 0.3. In the absence of either the substrate or the cell free extract, no aldehyde formation was detected. In the absence of added PLP, somewhat less amount aldehyde was detected, presumably due to the presence of PLP in the cell free extract.
# [3] = system: B12-independent diol dehydratase from Clostridium glycolicum; conditions: cited from earlier work
# [4] = system: Vibrio Fluvialis APT (alanine:acetoin aminotransferase); assay: kinetic resolution of 3-amino-2-butanol isomers with the alanine:acetoin aminotransferase; assay type: biochemical, Vibrio Fluvialis JS17; conditions: 10 mM pyruvate, 10 mM 1:1 isomer mixture, 0.28 mg enzyme, pH 9.0, 24 h room temperature
# Protocol: An analytical method for detection of 3-amino-2-butanol was developed based on the o-phthaldialdehyde derivatization method for amino acid determination reported by Roth [Anal. Chem. 43:880 (1971)]. A 200 μL aliquot of 1 mM 3-amino-2-butanol (mixture of isomers) was mixed with 200 μL of a 50 mM solution of borate (pH 9.5), to which was added 10 μL of 5 μL/mL 2-mercaptoethanol in ethanol and 10 μL of 10 mg/mL o-phthaldialdehdye in ethanol. The solution was incubated at room temperature for 10 min, at which time the derivative was extracted into 200 μL hexane. The hexane was separated from the aqueous solution by decanting, and 10 μL were injected onto a Chiracel OD HPLC column (Daicel Chemical Industries; Fort Lee, N.J.). The column was run isocratically with a mobile phase of 90:10 hexane:isopropanol at a rate of 1 mL/min. The derivatized isomers of 3-amino-2-butanol were detected by absorbance at 340 nm with retention times of approximately 15.7 and 16.8 min [(2S,3S) and (2R,3R)], and 18.4 and 21.9 min [(2R,3S) and (2S,3R)]. […] After 24 h at room temperature, an aliquot was removed and analyzed as described above. […] After 3 h, samples were taken from the reaction and analyzed as described above for acetoin and butanediol. […]
# [5] = system: Klebsiella pneumoniae glycerol dehydratase; assay: glycerol dehydratase butanediol dehydratase activity; assay type: biochemical; conditions: crude cell free extract of KLP23/pSYCO12, 80 mM HEPES pH 8.2, 37° C., 12 μM coenzyme B12, 10 mM substrate
# Text: Glycerol dehydratase (E.C. 4.2.1.30) and diol dehydratase (E.C. 4.2.1.28), while structurally related, are often distinguished in the art based on various differences that include substrate specificity. […] The recombinant E. coli strain KLP23/pSYCO1 2, comprising Klebsiella pneumoniae genes encoding the multiple subunits of glycerol dehydratase (alpha: SEQ ID NO:145 (coding region) and 146 (protein); beta: SEQ ID NO: 147 (coding region) and 148 (protein); and gamma: SEQ ID NO: 149 (coding region) and 150 (protein)) and Klebsiella pneumoniae genes encoding the multiple subunits of glycerol dehydratase reactivase (large subunit, SEQ ID NO: 151 (coding region) and 152 (protein); and small subunit, SEQ ID NO: 153 (coding region) and 154 (protein)), is described in Emptage et al. U.S. Pat. No. 6,514,733 and in WO 2003089621, which are herein incorporated by reference. A crude, cell free extract of KLP23/pSYCO12 was prepared by methods known to one skilled in the art. […] The formation of 2-butanone was monitored by HPLC (Shodex SH-1011 column and SH-G guard column with refractive index detection; 0.01 M H2SO4 as the mobile phase at a flow rate of 0.5 mL/min and a column temperature of 50° C.; 2-butanone retention time=40.2 min). The rate of 2-butanone formation by the glycerol dehydratase preparation was determined to be 0.4 nmol/min/mg of crude protein.
compound,measurement,setting,value
"C[C@@H](N)[C@@H](C)OP(=O)(O)O (mixture of isomers) [mixture of (R,R)+(S,S), (R,R)-3-amino-2-butanol O-phosphate]",conversion of substrate to ketone product,[1],two peaks representing the derivatized 2-butanone isomers were observed
"CC(CN)OP(=O)(O)O (racemic) [Aminopropanol O-phosphate, DL-1-amino-2-propanol O-phosphate]",product yield / activity compared among substrates,[1],highest activity
same,"OD670, 10 min",[2]; PLP (+),1.229
same,"OD670, 30 min",[2]; PLP (+),2.264
same,"OD670, 10 min",[2]; PLP (−),0.855
same,"OD670, 30 min",[2]; PLP (−),1.454
"CC(O)C(C)O (stereo not drawn) [2,3-butanediol]",activity relative to the activity towards ethanediol,[3],less than 1%
"C[C@H](N)[C@@H](C)O [(2R,3S) isomer, (2R,3S)-3-amino-2-butanol]",peak depleted,[4],95%
"C[C@H](O)[C@@H](C)N [(2S,3R) isomer, (2S,3R)-3-amino-2-butanol]",peak retained,[4],> 90%
C[C@@H](N)COP(=O)(O)O [(R)-2-amino-1-propanol O-phosphate],conversion of substrate to ketone product,[1],converted to propanone
C[C@H](N)COP(=O)(O)O [(S)-2-amino-1-propanol O-phosphate],conversion of substrate to ketone product,[1],converted to propanone
same,product yield / activity compared among substrates,[1],much higher
"CC(O)C(C)O (stereo not drawn) [meso-2,3-butanediol]",rate of 2-butanone formation,[5],0.4 nmol/min/mg of crude protein
"(2R,3S)-3-amino-2-butanol O-phosphate and (2S,3R)-3-amino-2-butanol O-phosphate [mixture of (R,S) +(S,R) isomers]",conversion of substrate to ketone product,[1],two peaks representing the derivatized 2-butanone isomers were observed
same,product yield / activity compared among substrates,[1],higher product yield
